Measured values published in patent publication US12037583B2, “Compositions and methods for immunooncology” (Novartis AG, priority 2015, dated 2024).

How the values were obtained:
TRAC = assay: Editing of TRAC by dgRNAs in HEK cells stably expressing Cas9 (NGS); assay type: cell-based, human; settings: dgRNA delivered to HEK cells stably expressing Cas9, target TRAC, mean of at least 3 experiments
Source text: (§1) FIG. 12: Mean (n≥3) editing of CRISPR systems with dgRNAs as indicated to TRAC in HEK cells (stably expressing Cas9) or primary human CD3+ T cells (delivery of dgRNA:Cas9 RNP by electroporation).

TRAC locus = assay: Genomic editing of the TRAC locus in primary human CD3+ T cells by RNP electroporation (NGS: % indels, % frameshift edits, indel pattern); assay type: cell-based; settings: dgRNA/Cas9 RNP by electroporation, target TRAC; for mean FS edit (%): frameshift edits in primary human CD3+ T cells; for mean total % edit: primary human CD3+ T cells, mean of at least 3 experiments;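 on all read-outs here: total edit is the insertion or deletion frequency at TRAC, and the frameshift value is the share of those indels that shift the coding frame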
Source text: as §1
FIG. 33C: Genomic editing of the TRAC locus resulting from human primary T cell electroporation with RNP containing the indicated gRNA targeting the TRAC locus is shown. The frequency of insertions or deletions is indicated (% indels) and the percentage of these edits that result in frameshifting of the coding sequence is shown (% frameshift edits).
Data for each experiment are the average from triplicate PCR products.

Sequence	mean % edit (TRAC)	mean FS edit (%) (TRAC locus)	mean total % edit (TRAC locus)
AGGCUUCUCACCCUGCAGCA (chemistry not given here; listed as Homo sapiens) [CR000923]	67.4%	32.7%	37.3%
AGUUGGUGGCAUUGCCGGGG (chemistry not given here; listed as Homo sapiens) [CR001015]	35.9%	20.4%	21.8%
AUAUGUGCAGCUCAGGGUCA (chemistry not given here; listed as Homo sapiens) [CR000937]	50.9%	10.8%	15.8%
AUCCUCCUCCUGAAAGUGGC (chemistry not given here; listed as Homo sapiens) [CR000987]	39.6%	18.2%	20.6%
CAAUGCAGAGGAAGGAGCGA (chemistry not given here; listed as Homo sapiens) [CR000997]	11.6%	6.4%	6.7%
CACACCUCUUGUCUUUGGAA (chemistry not given here; listed as Homo sapiens) [CR000954]	22.3%	2.6%	2.7%
CACCAAAGCUGCCCUUACCU (chemistry not given here; listed as Homo sapiens) [CR000977]	80.6%	35.7%	44.2%
CCACUUUCAGGAGGAGGAUU (chemistry not given here; listed as Homo sapiens) [CR000986]	68.6%	14.8%	36.4%
CCAGGGCAUGCCAUGCUCAC (chemistry not given here; listed as Homo sapiens) [CR000928]	54.2%	14.6%	18.1%
CCUGUGAGCAUGGCAUGCCC (chemistry not given here; listed as Homo sapiens) [CR000927]	68.7%	22.6%	23.8%
CUACCACCUCUGUGCCCCCC (chemistry not given here; listed as Homo sapiens) [CR001012]	64.5%	22.9%	31.5%
CUGACAGGUUUUGAAAGUUU (chemistry not given here; listed as Homo sapiens) [CR000981]	70.0%	25.1%	37.6%
CUGGGGAAGAAGGUGUCUUC (chemistry not given here; listed as Homo sapiens) [CR000973]	39.7%	12.4%	16.2%
CUUCAAGAGCAACAGUGCUG (chemistry not given here; listed as Homo sapiens) [CR000969]	34.0%	20.9%	24.8%
GAGAAUCAAAAUCGGUGAAU (chemistry not given here; listed as Homo sapiens) [CR000964]	51.2%	23.5%	27.0%
GAGGCUUCUCACCCUGCAGC (chemistry not given here; listed as Homo sapiens) [CR000922]	37.8%	5.0%	6.4%
GAGUUCCCUCUGUUUGGAGA (chemistry not given here; listed as Homo sapiens) [CR001004]	47.2%	6.4%	6.7%
GCAAUGCAGAGGAAGGAGCG (chemistry not given here; listed as Homo sapiens) [CR000998]	4.3%	2.2%	2.4%
GCAGCAGGGACCUGUGAGCA (chemistry not given here; listed as Homo sapiens) [CR000926]	73.0%	19.9%	22.5%
GCAUUGCCGGGGGGGCACAG (chemistry not given here; listed as Homo sapiens) [CR001014]	52.7%	24.3%	27.3%
GCUGUAUGUGUGAGUUGGUG (chemistry not given here; listed as Homo sapiens) [CR000948]	84.5%	18.4%	20.3%
GCUUUCACCUCCUUGGGGGU (chemistry not given here; listed as Homo sapiens) [CR001008]	13.6%	4.5%	5.1%
GGAAACACACCUCUUGUCUU (chemistry not given here; listed as Homo sapiens) [CR000953]	66.0%	14.4%	17.7%
GGUGUCAUAUGUGCAGCUCA (chemistry not given here; listed as Homo sapiens) [CR000938]	55.0%	12.5%	13.9%
GUAGCAGCUUUCACCUCCUU (chemistry not given here; listed as Homo sapiens) [CR001011]	64.8%	10.8%	13.2%
GUAGGAGAGUUCCCUCUGUU (chemistry not given here; listed as Homo sapiens) [CR001006]	56.8%	10.4%	13.6%
UAAACCCGGCCACUUUCAGG (chemistry not given here; listed as Homo sapiens) [CR000990]	63.7%	25.3%	36.1%
UAAAUAAUAAUCACUCUCAC (chemistry not given here; listed as Homo sapiens) [CR000940]	55.0%	14.4%	22.1%
